From PMC10746280, “Bacterial efflux pump modulators prevent bacterial growth in macrophages and under broth conditions that mimic the host environment” (mBio, 2023)
pIC50: −log10 of the molar value.

Tests used:
[1] = system: Bacillus subtilis expressing mNeongreen-FtsZ; assay: Membrane voltage disruption assay (mNeongreen-FtsZ delocalization); type: cell-based; conditions: 100 µM
Description: We therefore monitored membrane integrity in the presence of EPM analogs by evaluating membrane voltage with mNeongreen-FtsZ ([28][–][30]). The FtsZ protein localizes to the bacterial septum based on membrane potential, and rapid delocalization of fluorescent FtsZ reporters occurs when voltage across the membrane is disrupted ([31], [32]). We monitored mNeongreen-FtsZ localization in a Gram-positive bacterium, Bacillus subtilis, to eliminate the potentially confounding issue of the passage of EPM analogs through the outer membrane at different rates ([24], [33][–][36]).
To determine whether exposure to compound dislodges FtsZ from the cell septum, an overnight culture of Bacillus subtilis grown in LPM at pH 5.5 (LPM 5.5) expressing mNeonGreen-FtsZ (strain DK5092) was exposed to DMSO, CCCP (100 µM) or an EPM analog (150 µM) for 15 or 30 min, as indicated. Bacteria were immobilized on 1% agarose pads made with LPM under a coverslip. To set the threshold value for the FtsZ septal ring, mNeonGreen signal (excitation 488 nm, emission 525 nm) from at least 20 DMSO-treated cells was quantified using a CV1000 confocal microscope with a 100× oil, NA = 1.4 objective. A background-subtracted image was made by subtracting the median intensity from full original images. A signal threshold of ≥400 arbitrary units per pixel was set (Fig. 4B). Then, we manually confirmed that mNeonGreen signal above threshold was at the center of the bacterial rod. We examined 50 cells per sample from at least three biological replicates (≥150 cells per condition). A MATLAB program (https://github.com/Betterton-Lab/FtsZ-Quantification) counted the number of pixels above threshold per cell and averaged this value across all cells for each condition and this value is reported in the graph (Fig. 4C).

[2] = system: S. Typhimurium SL1344 (sifB::gfp) in RAW 264.7 macrophages; assay: SAFIRE macrophage assay: intracellular bacterial load (GFP signal within macrophages); type: cell-based, Salmonella enterica serotype Typhimurium
Method in brief: (§1)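 RAW 264.7 macrophages infected with S. Typhimurium SL1344 sifB::gfp (MOI ~30), gentamicin 40 µg/mL, then compound from 2 h to 18 h post-infection. Confocal imaging with MitoTracker and DAPI; toxicity as adherent MitoTracker-positive macrophage count, bacterial load as GFP+ macrophage area.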

RAW 264.7 macrophages = assay: SAFIRE macrophage assay: host toxicity (adherent macrophage count, morphology); type: cell-based
Method in brief: as §1

[3] = 5 uM, 'Toxic' given instead of a score
[4] = 25 uM, 'Toxic' given instead of a score

SMILES | effect on FtsZ localization [1] | 5 uM Avg Antibacterial Score [2, 3] | 25 uM Avg Antibacterial Score [2, 4] | 5 uM Avg Cell # Score (RAW 264.7 macrophages; 5 uM) | 25 uM Avg Cell # Score (RAW 264.7 macrophages; 25 uM) | pIC50 ([2]; Salmonella enterica, TYPHIMURIUM, RAW264.7, read-out: SAFIRE IC50) | toxicity to infected macrophages in SAFIRE (RAW 264.7 macrophages; 16 h after treatment) | 5 uM Avg Antibacterial Score ([2]; 5 uM compound, n=1, DMSO solvent control = 98, rifampicin 2 μg/mL = 65) | 25 uM Avg Antibacterial Score ([2]; 25 uM compound, n=1, DMSO solvent control = 98, rifampicin 2 μg/mL = 65) | 5 uM Avg Cell # Score (RAW 264.7 macrophages; 5 uM compound, n=1, DMSO solvent control = 100) | 25 uM Avg Cell # Score (RAW 264.7 macrophages; 25 uM compound, n=1, DMSO solvent control = 100)
N#CC(C#N)=NNc1cccc(Cl)c1 [CCCP, carbonyl cyanide m-chlorophenyl hydrazone, reference compound] | delocalized FtsZ | – | – | – | – | – | – | – | – | – | –
NCC1CCN(CC(O)COc2cc(Cl)cc(Cl)c2)CC1 (stereo not drawn) [CU208] | – | 20 | Toxic | 167 | 15 | – | – | – | – | – | –
COCCCN(C)C1CCN(CC(O)COc2ccc(Cl)c(Cl)c2)CC1 (stereo not drawn) [CU210] | – | 54 | 8 | 131 | 112 | 8.22 | – | – | – | – | –
COc1ccc(OCC(O)CN2CCC(Nc3nccc(C(F)(F)F)n3)C2)cc1 (stereo not drawn) [CU096] | – | 103 | 29 | 74 | 92 | – | – | – | – | – | –
NC1CCN(CC(O)COc2ccc(Cl)cc2)C1 (stereo not drawn) [CU165] | – | 63 | 32 | 105 | 109 | – | – | – | – | – | –
CN(CC(O)COc1ccc(Cl)c(Cl)c1)C1CCNC1 (stereo not drawn) [CU143] | – | 84 | 55 | 113 | 117 | – | – | – | – | – | –
NC1CCN(CC(O)COc2ccc(F)cc2F)C1 (stereo not drawn) [CU167] | – | 75 | 58 | 109 | 113 | – | – | – | – | – | –
OC(COc1ccc(Cl)c(Cl)c1)CN1CCN(Cc2cccc3ccccc23)CC1 (stereo not drawn) [CU212] | – | Toxic | Toxic | 19 | 18 | – | – | – | – | – | –
COc1ccc(OCC(O)CN2CCC(Nc3nccs3)CC2)cc1 (stereo not drawn) [CU054] | – | 91 | 74 | 98 | 96 | – | – | – | – | – | –
CN(C)C1CCN(CC(O)COc2ccc(Cl)c(Cl)c2)C1 (stereo not drawn) [CU142] | – | 77 | 47 | 104 | 113 | – | – | – | – | – | –
OC(COc1ccc(Cl)cc1)CN1CCC(Nc2nccc(C(F)(F)F)n2)C1 (stereo not drawn) [CU086] | – | 71 | Toxic | 89 | 27 | – | – | – | – | – | –
CO[C@H]1CCN(CC(O)COc2ccc(Cl)c(Cl)c2)C1 (stereo partly drawn) [CU126] | – | 99 | 47 | 81 | 86 | – | – | – | – | – | –
CCOC(=O)c1cccc(OCC(O)CN2CCC(N)C2)c1 (stereo not drawn) [CU168] | – | 73 | 55 | 101 | 111 | – | – | – | – | – | –
NC1CCN(CC(O)COc2ccc(Cl)c(Cl)c2)CC1 (stereo not drawn) [CU173] | – | 20 | 30 | 98 | 43 | – | toxic | – | – | – | –
Cc1ccc(Cl)c(OCC(O)CN2CCC(Nc3nccc(C(F)(F)F)n3)CC2)c1 (stereo not drawn) [CU148] | – | 48 | Toxic | 123 | 39 | – | – | – | – | – | –
N[C@H]1CC[C@@H](NCC(O)COc2ccc(Cl)c(Cl)c2)CC1 (stereo partly drawn) [CU245] | – | – | – | – | – | – | – | 66 | 16 | 122 | 103
OC(CNC1CCNCC1)COc1ccccc1Cl (stereo not drawn) [CU200] | – | 92 | 65 | 99 | 108 | – | – | – | – | – | –
OC(COc1ccccc1Cl)CN1CCC(Nc2ncccn2)CC1 (stereo not drawn) [CU049] | – | 104 | 61 | 84 | 121 | – | – | – | – | – | –
O=C(CCOc1ccc(Cl)c(Cl)c1)N1CCC(Nc2nccc(C(F)(F)F)n2)C1 (stereo not drawn) [CU111] | – | 106 | 104 | 86 | 47 | – | – | – | – | – | –
COc1ccc(OCC(O)CN2CCC(N)C2)cc1 (stereo not drawn) [CU152] | – | 103 | 91 | 116 | 142 | – | – | – | – | – | –
NC1CCN(CC(O)COc2ccc(Cl)cc2Cl)CC1 (stereo not drawn) [CU190] | – | 24 | 21 | 101 | 87 | – | – | – | – | – | –
NC1CCCN(CC(O)COc2ccc(Cl)c(Cl)c2)C1 (stereo not drawn) [CU144] | – | 63 | 29 | 99 | 105 | – | – | – | – | – | –
